Data set [1] concerns the target T1, Threonylcarbamoyladenosine tRNA methylthiotransferase (Homo sapiens) (UniProt Q5VV42).
T1 sequence (whole entry): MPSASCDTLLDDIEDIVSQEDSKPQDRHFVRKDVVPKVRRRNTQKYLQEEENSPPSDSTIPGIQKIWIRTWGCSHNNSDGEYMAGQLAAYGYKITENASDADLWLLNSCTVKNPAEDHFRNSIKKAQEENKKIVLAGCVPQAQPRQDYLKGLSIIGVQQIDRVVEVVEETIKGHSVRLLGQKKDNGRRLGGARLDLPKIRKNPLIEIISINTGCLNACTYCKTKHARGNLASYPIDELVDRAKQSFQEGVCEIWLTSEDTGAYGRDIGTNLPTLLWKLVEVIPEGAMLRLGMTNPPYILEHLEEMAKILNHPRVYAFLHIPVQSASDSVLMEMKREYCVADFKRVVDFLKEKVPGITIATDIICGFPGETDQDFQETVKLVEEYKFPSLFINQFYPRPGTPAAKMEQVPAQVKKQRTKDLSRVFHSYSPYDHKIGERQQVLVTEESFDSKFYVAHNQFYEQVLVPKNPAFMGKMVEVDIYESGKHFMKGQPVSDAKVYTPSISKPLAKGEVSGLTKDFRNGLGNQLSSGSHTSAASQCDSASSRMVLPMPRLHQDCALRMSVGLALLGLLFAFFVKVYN
Nature of the data set: Rescue of mistranslation activity in CDKAL1 (unknown origin) extracted from Escherichia coli harboring MIaB deficient at 10 uM incubated for 1 hr by dual luciferase assay.

In data set [2] the test system is MIN6. Nature of the data set: Cytotoxicity against mouse MIN6 cells at 10 uM by MTT assay relative to control. Type of data set: toxicity, cell-based. Particulars: min6, 10 µM.
For data set [3], the system named is Rattus norvegicus. The data set can be described thus: Hypoglycemic effect in male Wister rat assessed as reduction in blood glucose level at 100 mg/kg, sc measured immediately after oral glucose challenge by OGTT analysis. Type of data set: functional, organism-based. Conditions: time 0.0 min.
Data set [4] relates to MIN6. The data set can be described thus: Induction of insulin secretion in mouse MIN6 cells at 10 uM incubated for 24 hrs by ELISA method. The data set is classed as functional, cell-based.
Data set [5] is described as follows: Drug concentration in Wister rat plasma at 100 mg/kg, sc measured after 60 mins. Particulars: Wistar. The data set is classed as ADME, organism-based.
Data set [6] can be described thus: Drug concentration in Wister rat plasma at 100 mg/kg, po measured after 60 mins. Type of data set: ADME, organism-based. Conditions: Wistar.
For data set [7], the system named is Rattus norvegicus. The data set can be described thus: Antihyperglycemic activity in male Wister rat assessed as reduction in blood glucose level at 100 mg/kg, sc measured at 60 mins after oral glucose challenge by OGTT analysis. The data set is classed as functional, organism-based.
Data set [8] relates to Rattus norvegicus. The data set can be described thus: Antihyperglycemic activity in male Wister rat assessed as reduction in blood glucose level at 100 mg/kg, sc measured at 30 mins after oral glucose challenge by OGTT analysis. The data set is classed as functional, organism-based.
Data set [9] relates to MIN6. The data set can be described thus: Induction of insulin secretion in mouse MIN6 cells at 3 uM incubated for 24 hrs by ELISA method. The data set is classed as functional, cell-based.

The source made the active and inactive calls. The calls are words filed in the database; no cut-off is given here.

With `CCc1ccc(C(=O)C(C)CNC2CCCCC2)cc1` (racemic), the Ratio in [1] turned out to be 0.95.

For the compound `CCc1ccc(C(=O)C(C)CN2CCOCC2)cc1` (racemic), the Ratio in [1] turned out to be 1.29. Still for that read-out and setting: the result for `CC(C)(C)c1ccc(C(=O)CCN2CCCCC2)cc1` reads 0.8; that for `CC(CN1CCCCC1)C(=O)c1ccc(C(C)C)cc1` (racemic), 0.78; that for `Cc1ccc(C(=O)C(C)CN2CCCCC2)cc1` (racemic), 0.99. `COCCOc1ccc(C(=O)C(C)CN2CCCCC2)cc1.Cl` (racemic) displayed an Activity in data set [2] of 3%. For the same compound, in [3], the outcome was inactive. The result in data set [4], in [7] and in data set [8] was Active. Further, the concentration at 1 h in data set [5] was > 15 µM; in [6], ≤ 2 µM. Further, in [1], the Ratio is 0.53. Regarding `CCc1ccc(C(=O)C(C)CN2CCN(CC)CC2)cc1` (racemic), the Ratio in [1] amounted to 0.71.

Take `CCc1ccc(C(=O)CCN2CCCCC2)cc1`: the Ratio in data set [1] is 0.8.

For the compound `CCc1ccc(C(=O)C(C)CN2CCCCC2)s1` (racemic), the Ratio in [1] was 0.63.

Take `CCc1ccc(C(=O)C(C)(C)CN2CCCCC2)cc1`: the Ratio in [1] was determined as 0.66. On the same count and under the same terms, the result for `CC(CN1CCCCC1)C(=O)c1ccc(O)cc1` (racemic) reads 0.71; that for `CC(CN1CCCCC1)C(=O)c1ccc(Br)cc1` (racemic), 0.84; that for `CCOc1ccc(C(=O)C(C)CN2CCCCC2)cc1` (racemic), 0.84. On to `CC(C)Oc1ccc(C(=O)C(C)CN2CCCCC2)cc1` (racemic), for which the Ratio in [1] amounted to 0.93. Turning to `CCCCOc1ccc(C(=O)C(C)CN2CCCCC2)cc1` (racemic), in [1], the Ratio stood at 0.8. For the compound `CC(CN1CCCCC1)C(=O)c1ccc(Cl)cc1` (racemic), the Ratio in data set [1] worked out at 0.86. Same read-out and setting: the result for `CCC(C)(C)c1ccc(C(=O)C(C)CN2CCCCC2)cc1` (racemic) reads 0.85. The same measure, in the same setting: the result for `CCc1ccc(C(=O)C(C)CN2CCCCC2)o1` (racemic) reads 0.99. Regarding `CCc1ccc(C(=O)C(C)CN2CCCC2)cc1` (racemic), the Ratio in [1] was determined as 1.01. Still for that read-out and setting: the result for `CC(C)COc1ccc(C(=O)C(C)CN2CCCCC2)cc1` (racemic) reads 0.88; that for `CCCc1ccc(C(=O)C(C)CN2CCCCC2)cc1` (racemic), 1.01.

`CC(CN1CCCCC1)C(=O)c1cccc(C(C)(C)C)c1` (racemic): the Ratio in data set [1] was 0.95.

For the compound `CC(C)[C@H]1CC[C@H](C(=O)N[C@H](Cc2ccccc2)C(=O)O)CC1`, the result in data set [3] was Active. `CCc1ccccc1C(=O)C(C)CN1CCCCC1` (racemic): the Ratio in data set [1] amounted to 0.98. Consider `CCc1ccc(C(=O)C(C)CC2CCNCC2)cc1` (racemic), for which the Ratio in [1] is 0.75.

As for `CC(CN1CCCCC1)C(=O)c1ccc(CC(C)(C)C)cc1` (racemic), the Ratio in [1] worked out at 1.05. Consider `CCc1ccc(C(=O)C(C)CN2CCCCCC2)cc1` (racemic), for which the Ratio in [1] was found to be 1.01. Same read-out and setting: as for `CC(CN1CCCCC1)C(=O)c1ccc(C(F)(F)F)cc1` (racemic), the figure is 0.87; as for `CCc1ccc(C(=O)C(C)CN2CCCCC2)cc1` (stereo not drawn), 0.7.

For `CCc1ccc(C(=O)C(C)CN2CCC(c3ccccc3)CC2)cc1` (racemic), in [1], the Ratio worked out at 1.01.

`CSCCOc1ccc(C(=O)C(C)CN2CCCCC2)cc1` (racemic): the Ratio in data set [1] turned out to be 0.96.

On to `CCc1ccc(C(=O)C(C)CN2CCN(C)CC2)cc1` (racemic), for which, in data set [1], the Ratio turned out to be 0.7. The same measure, in the same setting: as for `CC(CN1CCCCC1)C(=O)c1ccc(F)cc1` (racemic), the figure is 1.08. Still for that read-out and setting: the result for `CCc1ccc(C(=O)C(C)Cc2ccncc2)cc1` (racemic) reads 1.04. In the case of `CCc1ccc(C(=O)C(C)CN2CCC(C)CC2)cc1` (racemic), the Ratio in data set [1] was found to be 0.98. Regarding `CCc1ccc(C(=O)C(C)CN2CCSCC2)cc1` (racemic), in [1], the Ratio came out at 0.97. Same read-out and setting: as for `CCc1ccc(C(=O)C(C)CN2CCC(OC)CC2)cc1` (racemic), the figure is 1.13; as for `CCC(CN1CCCCC1)C(=O)c1ccc(C(C)(C)C)cc1` (racemic), 0.73; as for `CC(CN1CCCCC1)C(=O)c1ccc(OCCO)cc1` (racemic), 0.82. Still for that read-out and setting: as for `CCc1cccc(C(=O)C(C)CN2CCCCC2)c1` (racemic), the figure is 0.95.

In the case of `CC(C)(C)c1ccc(C(=O)C(CN2CCCCC2)C(=O)O)cc1` (racemic), the Ratio in [1] is 1.16.

Turning to `CCCOc1ccc(C(=O)C(C)CN2CCCCC2)cc1` (racemic), the Ratio in data set [1] amounted to 0.85. `CC(CN1CCCCC1)C(=O)c1ccc(C(C)(C)C)cc1.Cl` (racemic): the Activity in data set [2] was 4%. In data set [3], the outcome was inactive. The concentration at 1 h in [5] is > 15 µM; in [6], ≤ 2 µM. Further, in data set [1], the Ratio amounted to 0.44. Besides, the result in [7], in [8] and in data set [9] was Active.

On to `CC(CN1CCCCC1)C(=O)c1ccc(C2CCCCC2)cc1` (racemic), for which the Ratio in data set [1] turned out to be 1.3.
